Read-outs that look alike come from different tables or passages of the source.
Legend:
[1] = tested on: HER2+ SK-BR-3 breast cancer cells; assay: In vitro cytotoxicity assay (PrestoBlue), Example 9 (FIG. 5); format: cell-based; details: Homo sapiens
Procedure: (§1) HER2+ SK-BR-3 breast cancer cells (ATCC), HCC1954 breast cancer cells (CRL-2338, ATCC), JIMT-1 breast cancer cells (DSMZ) and SKOV-3 ovarian cancer cells (ATCC) were cultured essentially according to the providers' instructions. After incubation with ADCs, cell viability was determined using PrestoBlue reaction using manufacturer's instructions. Cell viability data data was transferred to GraphPad Prism to determine IC50 values. Exatecan (mesylate salt) and DXd (free deruxtecan payload) were purchased from MedChemExpress.

[2] = tested on: HER2+ JIMT-1 breast cancer cells; assay: In vitro cytotoxicity assay (PrestoBlue), Example 9 (FIG. 7); format: cell-based; details: Homo sapiens
Procedure: as §1

[3] = tested on: HER2+ HCC1954 breast cancer cells; assay: In vitro cytotoxicity assay (PrestoBlue), Example 9 (FIG. 6); format: cell-based; details: Homo sapiens
Procedure: as §1

[4] = tested on: HER2+ SKOV-3 ovarian cancer cells; assay: In vitro cytotoxicity assay (PrestoBlue), Example 9 (FIG. 8); format: cell-based; details: Homo sapiens, SK-OV-3
Procedure: as §1

MOLM-13 cells = assay: MOLM-13 xenograft model; details: for signs of toxicity: single i.v. dose, clinical signs and general behavior
Procedure: The study was performed at the TCDM, University of Turku, Finland, according to the appropriate ethical committee approval. Cells for inoculation to mice were prepared in vigorous exponential growth phase. 2 million MOLM-13 cells in 50% Matrigel were inoculated s.c. to the flank of each mouse (female athymic nude mice between 8-10 weeks of age). Clinical signs and general behavior of the animals were observed regularly. […] Tumor growth was followed by palpation. After caliper measurement, tumor volume was calculated according to 0.5×length×width^2. […] Mice were evenly divided into study groups, 6 mice in each group, so that each group received similar distribution of different-sized tumors and the average tumor volumes were similar in each group. Intravenous (i.v.) treatment in PBS was given once on day 1 of treatment as a single dose regimen (on day 8 after tumor inoculation). The experiment lasted to day 46 after treatment (day 54 after tumor inoculation).

[5] = Hydrophobic interaction chromatography (HIC-HPLC) of flanvotumab ADCs; format: physicochemical; details: closer to naked antibody = more hydrophilic
Excerpt: Flanvotumab-deruxtecan ADC was generated essentially similarly as FLExM above using deruxtecan linker-payload (DxM, MedChemExpress, Sweden; Scheme 1.4).
HIC-HPLC analysis using TSKgel ButylNPR column was done with Äkta HPLC purifier system.

[6] = Maleimide self-stabilization in storage formulation; format: physicochemical; details: storage formulation of PBS pH 7.4
SK-MEL-30 melanoma cells = assay: SK-MEL-30 human melanoma xenograft model; format: in vivo, athymic mice; details: single i.v. 10 mg/kg dose
Procedure: SK-MEL-30 human melanoma xenograft model (FIG. 4A): The animal model were performed at the University of Helsinki, Finland, according to the appropriate ethical committee approval. SK-MEL-30 melanoma cells, 2 million cells/mouse, were inoculated subcutaneously (s.c.) to athymic mice.

[7] = Aggregation status by size-exclusion chromatography (SEC-HPLC); format: physicochemical
Procedure: Aggregation status of FLExM01 was evaluated by size-exclusion chromatography (SEC-HPLC; FIG. 2A), showing very low aggregation with high-molecular weight aggregate level of 1.6%. Drug-to-Antibody Ratio (DAR) was determined by reversed-phase chromatography (RP-HPLC; FIG. 2B), showing homogeneous conjugation to DAR=8.

[8] = single i.v. 10 mg/kg dose, day 54 after inoculation

Question: Which IC50 [1] does the source give for `CC[C@@]1(O)C(=O)OCc2c1cc1n(c2=O)Cc2c-1nc1cc(F)c(C)c3c1c2[C@@H](NC(=O)CO)CC3` [DXd, 2-hydroxyacetoyl exatecan] here?
Answer: 4.3 nM

Question: And the IC50 [2]?
Answer: 18 nM

Question: And the IC50 ([3]; HCC1954)?
Answer: 5 to 8 nM

Question: What about the IC50 [4] of the same molecule?
Answer: 9.5 nM

Question: For `CC[C@@]1(O)C(=O)OCc2c1cc1n(c2=O)Cc2c-1nc1cc(F)c(C)c3c1c2[C@@H](N)CC3` [exatecan, Exatecan], which IC50 [1] is on record?
Answer: 0.87 nM

Question: What about the IC50 [2] of the same molecule?
Answer: 3.1 nM

Question: What about the IC50 ([3]; HCC1954 cells, FIG. 6, read-out: IC50) of the same molecule?
Answer: 5 to 8 nM

Question: What about the IC50 [4] of the same molecule?
Answer: 4.7 nM

Question: Which “deaths due to tumor growth, %” value (MOLM-13 cells; single i.v. 10 mg/kg dose) does the source give for “LNDxM: lintuzumab-deruxtecan ADC DAR=8, maleimides not stabilized; 01-03 are batches [reference compound]” here?
Answer: 17%

Question: What about the “tumor-free mice at the end of the study (mice out of 6)” value (MOLM-13 cells; [8]) of the same molecule?
Answer: 2/6

Question: And the “tumor-free mice at the end of the study, %” value (MOLM-13 cells; [8])?
Answer: 33%

Question: What about the “deaths due to tumor growth (mice out of 6)” value (MOLM-13 cells; single i.v. 10 mg/kg dose, death on day 47 after tumor inoculation) of the same molecule?
Answer: ⅙

Question: And the signs of toxicity (MOLM-13 cells)?
Answer: No signs of toxicity were recorded

Question: For “Lintuzumab: humanized recombinant antibody produced in CHO cells; anti-CD33”, which “tumor growth inhibition (in words)” value (MOLM-13 cells; single i.v. 10 mg/kg dose, s.c. tumors about 120 mm^3) is on record?
Answer: only slight inhibitory activity to tumor growth

Question: And the signs of toxicity (MOLM-13 cells)?
Answer: No signs of toxicity were recorded

B1: FLExM01: flanvotumab-exatecan ADC with ExM linker-payload, DAR≈8 (conjugate, chains of the INN, looked up)
VH: QVQLVQSGSELKKPGASVKISCKASGYTFTSYAMNWVRQAPGQGLESMGWINTNTGNPTYAQGFTGRFVFSMDTSVSTAYLQISSLKAEDTAIYYCAPRYSSSWYLDYWGQGTLVTVSS
VL: EIVLTQSPATLSLSPGERATLSCRASQSVSSYLAWYQQKPGQAPRLLIYDASNRATGIPARFSGSGSGTDFTLTISSLEPEDFAVYYCQQRSNWLMYTFGQGTKLEIK
modifications: exatecan ExM linker-payload, DAR 8
Question: With B1 as the molecule, how does the HIC-HPLC elution volume [5] read?
Answer: 6.5 mL

Question: What about the “maleimide self-stabilization (in words)” value [6] of the same molecule?
Answer: self-stabilized by maleimide hydrolysis

Question: What about the toxicities observed (SK-MEL-30 melanoma cells) of the same molecule?
Answer: No toxicities were observed

Question: And the “tumor growth inhibition (in words)” value (SK-MEL-30 melanoma cells; s.c. tumors about 200 mm^3)?
Answer: inhibited markedly more in the ADC-treated mice than either the antibody-treated or non-treated mice

Question: And the “high-molecular weight aggregate level” value ([7]; SEC-HPLC)?
Answer: 1.6%

B2: FLDxM01: Flanvotumab-deruxtecan ADC, DAR≈8 (conjugate, chains of the INN, looked up)
VH: QVQLVQSGSELKKPGASVKISCKASGYTFTSYAMNWVRQAPGQGLESMGWINTNTGNPTYAQGFTGRFVFSMDTSVSTAYLQISSLKAEDTAIYYCAPRYSSSWYLDYWGQGTLVTVSS
VL: EIVLTQSPATLSLSPGERATLSCRASQSVSSYLAWYQQKPGQAPRLLIYDASNRATGIPARFSGSGSGTDFTLTISSLEPEDFAVYYCQQRSNWLMYTFGQGTKLEIK
modifications: deruxtecan, DAR 8
Question: Which results are given for B2?
Answer: HIC-HPLC elution volume [5]: 7.8 mL; aggregates (in words) ([7]; MALDI-TOF MS, SEC-HPLC and RP-HPLC): low aggregates

B3: Flanvotumab: naked antibody, parent of the anti-TYRP-1 ADC (antibody, chains of the INN, looked up, V domains shown)
VH: QVQLVQSGSELKKPGASVKISCKASGYTFTSYAMNWVRQAPGQGLESMGWINTNTGNPTYAQGFTGRFVFSMDTSVSTAYLQISSLKAEDTAIYYCAPRYSSSWYLDYWGQGTLVTVSS
VL: EIVLTQSPATLSLSPGERATLSCRASQSVSSYLAWYQQKPGQAPRLLIYDASNRATGIPARFSGSGSGTDFTLTISSLEPEDFAVYYCQQRSNWLMYTFGQGTKLEIK
Question: Which toxicities observed (SK-MEL-30 melanoma cells) does the source give for B3 here?
Answer: No toxicities were observed
